≈ marks a conversion by molar mass, not a printed value. Where two headings read alike, the source gives them in different places.
Assays:
[1] = system: clothes moth Tineola bisselliella; assay: whole plant or invertebrate; assay type: in vivo; conditions: for LC50: Tineola bisselliella; for insecticidal activity: closed space, insects tested
Description: (§1) The pesticidal activity of the extracts is measured in a closed space on adult insects. Each value represents the mean of three experiments, each involving 30 insects representative of three different insect orders: • lepidoptera (the clothes moth Tineola bisselliella), • isoptera (the Saintonge termite Reticulitermes santonensis), and • coleoptera (the bean weevil Callosobruchus maculatus)

[2] = system: bean weevil Callosobruchus maculatus; assay: Pesticidal activity in a closed space on adult weevil (LC50); assay type: in vivo
Description: as §1

[3] = ambient temperature storage; cited from earlier work
[4] = adult insects, closed space, 24 h of treatment, NQ = non-quantifiable due to the absence of activity, read-out: Weevil LC50

Question: What does the source list for `C=CCSSCC=C` [DAS2, diallyl disulfide]?
Answer: LC50 ([1]; 24 h, read-out: Mite LC50): 0.02 µg/mL (≈ 0.137 µM); LC50 ([1]; 24 h, read-out: Mite LC50 observed): 0.02 µg/mL (≈ 0.137 µM); LC50 ([1]; read-out: Mite LC50 calculated): 0.02 µg/mL (≈ 0.137 µM); insecticidal activity [1]: show an insecticidal activity; LC50 ([2]; adult insects, closed space, 24 h, NQ = no activity, read-out: Weevil LC50 observed): 0.5 µg/mL (≈ 3.42 µM); LC50 [2, 4]: 0.5 µg/mL (≈ 3.42 µM); LC50 ([2]; theoretical, from total DASn content compared with DAS2 activity, read-out: Weevil LC50 calculated): 0.5 µg/mL (≈ 3.42 µM)

Question: What does the source list for `C=CCS[S+]([O-])CC=C` (stereo not shown) [TiA2, allicin]?
Answer: insecticidal activity [1]: show an insecticidal activity; LC50 [2, 4]: 0.16 µg/mL (≈ 0.986 µM); stability at ambient temperature [3]: low stability

Reference: patent US20080214678A1, “Biopesticide Comprising a Composition Rich in Diallyl Polysulphides” (priority 2003, published 2008)
